Data published in PubChem BioAssay AID504642 (Southern Research Specialized Biocontainment Screening …, 2011).
Active and inactive are the calls of the source. No rule for the calls is given here.

Assays:
[1] = cytotoxicity in HepG2 cells, cytotoxicity control, cell-based (AID 504642); conditions: HepG2 viability, cytotoxicity counter-screen
[2] = tested on: HepG2 viability, cytotoxicity counter-screen; assay: as above

SMILES	viability ([1]; at 50 µM (top of the series))	CC50 [2] [µM]	further results
COc1cc(NC(=O)C/C(C)=N/NC(=O)c2ccccn2)c(OC)cc1Cl	86.2% (inactive)	–	–
CCOC(=O)CNC(=O)[C@H](Cc1ccccc1)NC(=O)OCc1ccccc1	97.3% (inactive)	–	–
COC(=O)C1CC(=O)N(c2ccc(OCc3ccccc3Cl)cc2)C1 (stereo unspecified)	98.6% (inactive)	–	–
CCc1ccc(/C=C2/C(=O)N(C)C(=S)N2CC(=O)OC)s1	78.9% (inactive)	–	–
CCOC(=O)c1ccc(NC(=O)Cn2ncc(Cl)c(Cl)c2=O)cc1	–	8.43	–
Oc1ccccc1/C=N/Nc1ccnc(SCc2ccccc2)n1	–	20.1	–
COC(=O)c1cc(=O)n(-c2ccc(F)cc2)c(=Nc2ccc(F)cc2)s1	–	19.4	–
Cc1nc(SCC(=O)NC2CCCCC2)[nH]c(=O)c1C	105% (inactive)	–	–
Cc1ccc(C(=O)N/N=C(/CC(=O)c2cccs2)C(F)(F)F)cc1	–	27.5	–
CC1CCN(C(=O)C2CCN(c3nnc(-n4cccc4)s3)CC2)CC1	81.6% (inactive)	–	–
Cc1ccc2c(c1)c(C1=c3ccccc3=NC1=O)c(O)n2C	–	12.9	–
CCC(C)Nc1ccc(NC(C)CC)cc1 (stereo unspecified)	–	6.41	–
S=c1nc[nH]c2nc[nH]c12	–	7.74	–
COC(=O)C(C)Oc1ccc(-c2nccc(-c3ccccn3)n2)cc1 (stereo unspecified)	95.4% (inactive)	–	–
CCOC(=O)C(C)Sc1ncnc2c1nnn2-c1ccc(F)cc1 (stereo unspecified)	94.1% (inactive)	–	–
O=C(CSc1nc2ccccc2c(=O)[nH]1)NCc1ccc(Cl)cc1	90.7% (inactive)	–	–
COC(=O)CCc1nc2c(C#N)c(-c3ccc(Cl)cc3)ccn2n1	102% (inactive)	–	–
O=C(CSc1nc2ccccc2c(=O)[nH]1)NC1CCCCC1	103% (inactive)	–	–

SMILES	viability ([1]; at 50 µM (top of the series))	CC50 [2] [µM]	further results
O=C(/C=C/c1ccccc1)N1CCN(CCN2C(=O)c3cccc4cccc(c34)C2=O)CC1	–	–	viability ([1]; at 25 µM (top of the series)): 91.1% (inactive)
Cc1nn2c(NCc3ccccn3)cc(C(C)C)nc2c1-c1ccccc1	–	< 0.098	–
Cc1cccc(/C=C/C(=O)c2ccc([N+](=O)[O-])o2)c1	–	7.91	–
CC(C)NC(=O)c1sc(=S)n2c1[nH]c(=O)c1ccc(C(=O)NCCc3ccc(Cl)cc3)cc12	–	46.1	–
Cc1cccc(-c2oc3ccc(-c4ccc5c(c4)OCO5)cc3c2C#Cc2cncn2C)c1	–	44.4	–
Cc1ccc2ccc3ccc(C)nc3c2n1	–	< 0.195	–
COC(=O)c1ccc(CNc2c(N3CCCC3)c(=O)c2=O)cc1	97.5% (inactive)	–	–
c1ccc(/N=C2\N=C(Nc3ccccn3)c3ccccc32)nc1	–	< 0.098	–
CCOC(=O)COn1c2c(c3c4no[n+]([O-])c4ccc31)CCCC2	85.5% (inactive)	–	–
CCOC1OC(=O)C(Cl)=C1Nc1ccccc1C (stereo unspecified)	97.8% (inactive)	–	–
O=C(/C=C\c1cccs1)N1CCN(Cc2ccc3c(c2)OCO3)CC1	84.1% (inactive)	–	–
Cc1ccc(NC(=O)C2C3/C=C\CCCCC32)cc1C (stereo unspecified)	101% (inactive)	–	–
CC(=NCc1ccc2c(c1)OCO2)C1=C(O)c2ccccc2C1=O	96.6% (inactive)	–	–
CC[N+](C)(CC)CCCCOc1ccc2c(c1)C(=O)c1cc(OCCCC[N+](C)(CC)CC)ccc1-2	93.8% (inactive)	–	–
CCOC(=O)COc1ccc(/C=C2\NC(=S)N(CC)C2=O)cc1	94.6% (inactive)	–	–
CNc1nc(SCc2ccccc2Cl)nc2c1CCCC2	–	26.2	–
O=C1C(Br)=Cc2cccc3cccc1c23	86.1% (inactive)	–	–
COC(=O)C(Nc1nc(SCC(=O)NC2CCCCC2)nc2ccccc12)c1ccccc1 (stereo unspecified)	–	–	viability ([1]; at 25 µM (top of the series)): 100% (inactive)
